# From article PMC7531004, “Discovery of gramicidin A analogues with altered activities by multidimensional screening of a one-bead-one-compound library” (Nature Communications, 2020)
# Where a SMILES comes first, the peptide text is derived from it. [ ]: non-standard residue; d: D form. The star is where a group is joined. NHCH2CH2OH = OCCN*; For = O=C*
# Assays:
# [1] = H+/Na+ transport assay of bead-derived peptides (one-point); format: biochemical; design: key: relative activity; mean of two control wells = 1.00; details: bead-derived peptide solution, EYPC/EYPG LUVs;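 note: relative to parent gramicidin A activity set to 1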
# How it was run: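 Pyranine (1.0 mM)-loaded LUVs containing egg yolk phosphatidylglycerol were prepared by film hydration, sonication and extrusion, then mixed with diluted bead-derived peptide in 96-well format and vortexed 30 min at room temperature. Fluorescence was normalized between untreated LUVs (0%) and Triton X-100 lysis (100%).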
# [2] = test system: P388 mouse leukemia cells; details: 92 h
# How it was run: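 Peptide stocks diluted 250× in growth medium; P388 cells 1 × 10^4 cells/mL final; 37 °C, 5% CO2, 92 h. WST-1 + 1-methoxy PMS, 4 h, A415. Output: % viability.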
# [3] = test system: Streptococcus pyogenes SSI-9; experiment: Antibacterial activity assay of bead-derived peptides (three concentrations); format: cell-based; design: key: +++: inhibition by the 640-fold diluted peptide solution; ++: inhibition by the 160-fold diluted solution; +: inhibition by the 40-fold diluted solution; -: no inhibition; details: S. pyogenes, bead-derived peptide solution, three concentrations
# How it was run: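 Growth inhibition scored visually as precipitated bacteria after 37 °C, 18 h incubation. Streptococcus pyogenes SSI-9 inoculum of 2 × 10^5 CFU in Ca2+/Mg2+-adjusted Mueller Hinton broth plus 5% laked horse blood; peptides tested at three levels: stock, 4-fold and 16-fold DMSO dilutions.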
SMILES,H+/Na+ transport activity normalized against the value of 1 (1.00) [1],cell viability/% [2] [%],antibacterial activity [3]
CNC(=O)C[C@@H](NC(=O)[C@@H](NC(=O)[C@H](NC(=O)[C@H](C)NC(=O)[C@H](NC(=O)[C@H](C)NC(=O)CNC(=O)[C@@H](NC=O)C(C)C)C(C)C)C(C)C)C(C)C)C(=O)N[C@@H](Cc1c[nH]c2ccccc12)C(=O)N[C@H](CC(C)C)C(=O)N[C@@H](Cc1c[nH]c2ccccc12)C(=O)N[C@H](CC(C)C)C(=O)N[C@@H](Cc1c[nH]c2ccccc12)C(=O)N[C@@H](C(=O)N[C@@H](Cc1c[nH]c2ccccc12)C(=O)NCCO)C(C)C [compound 6510] (For-VGA[dV]A[dV]V[dD](NHMe)W[dL]W[dL]W[dV]W-NHCH2CH2OH),1.36,100.0,-
CC(C)C[C@@H](NC(=O)[C@H](C)NC(=O)[C@H](NC(=O)[C@H](C)NC(=O)CNC(=O)[C@@H](NC=O)C(C)C)C(C)C)C(=O)N[C@H](C(=O)N[C@H](CC(C)C)C(=O)N[C@@H](Cc1c[nH]c2ccccc12)C(=O)N[C@@H](C(=O)N[C@@H](Cc1c[nH]c2ccccc12)C(=O)N[C@@H](C(=O)N[C@@H](Cc1c[nH]c2ccccc12)C(=O)N[C@@H](C(=O)N[C@@H](Cc1c[nH]c2ccccc12)C(=O)NCCO)[C@H](C)O)C(C)C)C(C)C)C(C)C [compound 13147] (For-VGA[dV]A[dL]V[dL]W[dV]W[dV]W[dT]W-NHCH2CH2OH),1.09,94.4,-
CC(C)C[C@@H](NC(=O)[C@H](C)NC(=O)CNC(=O)[C@@H](NC=O)C(C)C)C(=O)N[C@@H](C)C(=O)N[C@@H](C(=O)N[C@H](C(=O)N[C@@H](C(=O)N[C@@H](Cc1c[nH]c2ccccc12)C(=O)N[C@@H](C(=O)N[C@@H](Cc1c[nH]c2ccccc12)C(=O)N[C@H](CC(C)C)C(=O)N[C@@H](Cc1c[nH]c2ccccc12)C(=O)N[C@@H](C(=O)N[C@@H](Cc1c[nH]c2ccccc12)C(=O)NCCO)C(C)C)C(C)C)[C@H](C)O)C(C)C)C(C)C [compound 4357] (For-VGA[dL]A[dV]V[dT]W[dV]W[dL]W[dV]W-NHCH2CH2OH),1.01,100.0,-
CC(C)C[C@@H](NC(=O)[C@H](C)NC(=O)[C@H](NC(=O)[C@H](C)NC(=O)CNC(=O)[C@@H](NC=O)C(C)C)C(C)C)C(=O)N[C@H](C(=O)N[C@H](CC(C)C)C(=O)N[C@@H](Cc1c[nH]c2ccccc12)C(=O)N[C@@H](C(=O)N[C@@H](Cc1c[nH]c2ccccc12)C(=O)N[C@@H](C(=O)N[C@@H](Cc1c[nH]c2ccccc12)C(=O)N[C@@H](C(=O)N[C@@H](Cc1c[nH]c2ccccc12)C(=O)NCCO)C(C)C)C(C)C)C(C)C)C(C)C [compound 4477] (For-VGA[dV]A[dL]V[dL]W[dV]W[dV]W[dV]W-NHCH2CH2OH),1.38,6.3,+
CC(C)C[C@@H](NC(=O)[C@H](C)NC(=O)[C@H](NC(=O)[C@H](C)NC(=O)CNC(=O)[C@@H](NC=O)C(C)C)C(C)C)C(=O)N[C@H](C(=O)N[C@@H](C(=O)N[C@@H](Cc1c[nH]c2ccccc12)C(=O)N[C@@H](C(=O)N[C@@H](Cc1c[nH]c2ccccc12)C(=O)N[C@H](CC(C)C)C(=O)N[C@@H](Cc1c[nH]c2ccccc12)C(=O)N[C@H](CC(C)C)C(=O)N[C@@H](Cc1c[nH]c2ccccc12)C(=O)NCCO)[C@H](C)O)[C@H](C)O)C(C)C [compound 8374] (For-VGA[dV]A[dL]V[dT]W[dT]W[dL]W[dL]W-NHCH2CH2OH),1.02,66.4,-
CC(C)C[C@@H](NC(=O)[C@H](C)NC(=O)CNC(=O)[C@@H](NC=O)C(C)C)C(=O)N[C@@H](C)C(=O)N[C@H](CC(C)C)C(=O)N[C@H](C(=O)N[C@@H](C(=O)N[C@@H](Cc1c[nH]c2ccccc12)C(=O)N[C@@H](C(=O)N[C@@H](Cc1c[nH]c2ccccc12)C(=O)N[C@H](CC(C)C)C(=O)N[C@@H](Cc1c[nH]c2ccccc12)C(=O)N[C@@H](C(=O)N[C@@H](Cc1c[nH]c2ccccc12)C(=O)NCCO)C(C)C)C(C)C)C(C)C)C(C)C [compound 10456] (For-VGA[dL]A[dL]V[dV]W[dV]W[dL]W[dV]W-NHCH2CH2OH),1.13,11.8,+
CC(C)C[C@@H](NC(=O)[C@H](C)NC(=O)[C@H](NC(=O)[C@H](C)NC(=O)CNC(=O)[C@@H](NC=O)C(C)C)C(C)C)C(=O)N[C@H](C(=O)N[C@@H](C(=O)N[C@@H](Cc1c[nH]c2ccccc12)C(=O)N[C@@H](C(=O)N[C@@H](Cc1c[nH]c2ccccc12)C(=O)N[C@H](CC(C)C)C(=O)N[C@@H](Cc1c[nH]c2ccccc12)C(=O)N[C@H](CC(C)C)C(=O)N[C@@H](Cc1c[nH]c2ccccc12)C(=O)NCCO)C(C)C)[C@H](C)O)C(C)C [compound 10367] (For-VGA[dV]A[dL]V[dT]W[dV]W[dL]W[dL]W-NHCH2CH2OH),1.00,100.0,-
CNC(=O)C[C@@H](NC(=O)[C@H](Cc1c[nH]c2ccccc12)NC(=O)[C@@H](CC(C)C)NC(=O)[C@H](Cc1c[nH]c2ccccc12)NC(=O)[C@H](NC(=O)[C@H](Cc1c[nH]c2ccccc12)NC(=O)[C@@H](CC(C)C)NC(=O)[C@@H](NC(=O)[C@H](NC(=O)[C@H](C)NC(=O)[C@H](NC(=O)[C@H](C)NC(=O)CNC(=O)[C@@H](NC=O)C(C)C)C(C)C)C(C)C)C(C)C)C(C)C)C(=O)N[C@@H](Cc1c[nH]c2ccccc12)C(=O)NCCO [compound 5538] (For-VGA[dV]A[dV]V[dL]W[dV]W[dL]W[dD](NHMe)W-NHCH2CH2OH),1.06,100.0,-
CNC(=O)C[C@@H](NC(=O)[C@H](C)NC(=O)[C@@H](CC(C)C)NC(=O)[C@H](C)NC(=O)CNC(=O)[C@@H](NC=O)C(C)C)C(=O)N[C@H](C(=O)N[C@@H](C(=O)N[C@@H](Cc1c[nH]c2ccccc12)C(=O)N[C@H](CC(C)C)C(=O)N[C@@H](Cc1c[nH]c2ccccc12)C(=O)N[C@@H](C(=O)N[C@@H](Cc1c[nH]c2ccccc12)C(=O)N[C@H](CC(C)C)C(=O)N[C@@H](Cc1c[nH]c2ccccc12)C(=O)NCCO)C(C)C)C(C)C)C(C)C [compound 8265] (For-VGA[dL]A[dD](NHMe)V[dV]W[dL]W[dV]W[dL]W-NHCH2CH2OH),1.12,68.3,-
CC(C)C[C@@H](NC(=O)[C@H](C)NC(=O)CNC(=O)[C@@H](NC=O)C(C)C)C(=O)N[C@@H](C)C(=O)N[C@@H](C(=O)N[C@H](C(=O)N[C@@H](C(=O)N[C@@H](Cc1c[nH]c2ccccc12)C(=O)N[C@@H](C(=O)N[C@@H](Cc1c[nH]c2ccccc12)C(=O)N[C@@H](C(=O)N[C@@H](Cc1c[nH]c2ccccc12)C(=O)N[C@H](CC(C)C)C(=O)N[C@@H](Cc1c[nH]c2ccccc12)C(=O)NCCO)C(C)C)C(C)C)[C@H](C)O)C(C)C)C(C)C [compound 4493] (For-VGA[dL]A[dV]V[dT]W[dV]W[dV]W[dL]W-NHCH2CH2OH),1.19,100.0,-
CNC(=O)C[C@@H](NC(=O)[C@@H](NC(=O)[C@H](NC(=O)[C@H](C)NC(=O)[C@@H](CC(C)C)NC(=O)[C@H](C)NC(=O)CNC(=O)[C@@H](NC=O)C(C)C)C(C)C)C(C)C)C(=O)N[C@@H](Cc1c[nH]c2ccccc12)C(=O)N[C@@H](C(=O)N[C@@H](Cc1c[nH]c2ccccc12)C(=O)N[C@H](CC(C)C)C(=O)N[C@@H](Cc1c[nH]c2ccccc12)C(=O)N[C@@H](C(=O)N[C@@H](Cc1c[nH]c2ccccc12)C(=O)NCCO)C(C)C)C(C)C [compound 5185] (For-VGA[dL]A[dV]V[dD](NHMe)W[dV]W[dL]W[dV]W-NHCH2CH2OH),1.40,100.0,-
CC(C)C[C@@H](NC(=O)[C@H](C)NC(=O)[C@H](NC(=O)[C@H](C)NC(=O)CNC(=O)[C@@H](NC=O)C(C)C)C(C)C)C(=O)N[C@H](C(=O)N[C@@H](C(=O)N[C@@H](Cc1c[nH]c2ccccc12)C(=O)N[C@H](CC(C)C)C(=O)N[C@@H](Cc1c[nH]c2ccccc12)C(=O)N[C@H](CC(C)C)C(=O)N[C@@H](Cc1c[nH]c2ccccc12)C(=O)N[C@@H](C(=O)N[C@@H](Cc1c[nH]c2ccccc12)C(=O)NCCO)C(C)C)C(C)C)C(C)C [compound 9535] (For-VGA[dV]A[dL]V[dV]W[dL]W[dL]W[dV]W-NHCH2CH2OH),1.16,3.8,-
CC(C)C[C@@H](NC(=O)[C@H](C)NC(=O)CNC(=O)[C@@H](NC=O)C(C)C)C(=O)N[C@@H](C)C(=O)N[C@H](CC(C)C)C(=O)N[C@H](C(=O)N[C@H](CC(C)C)C(=O)N[C@@H](Cc1c[nH]c2ccccc12)C(=O)N[C@@H](C(=O)N[C@@H](Cc1c[nH]c2ccccc12)C(=O)N[C@H](CC(C)C)C(=O)N[C@@H](Cc1c[nH]c2ccccc12)C(=O)N[C@H](CC(C)C)C(=O)N[C@@H](Cc1c[nH]c2ccccc12)C(=O)NCCO)[C@H](C)O)C(C)C [compound 11408] (For-VGA[dL]A[dL]V[dL]W[dT]W[dL]W[dL]W-NHCH2CH2OH),1.30,57.5,-
